According to US11130769B2 (Prelude Therapeutics Incorporated, priority 2018, dated 2021):

Columns and labels:
H929 cells = assay: Cell viability assay (H929 10 FBS); assay type: cell-based; settings: Homo sapiens, NCI-H929, 24 hours, read-out: H929_10FBS IC50
In short: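 ATP-based luminescence (CellTiter-Glo or ATPlite 1 Step, 30-60 min at RT) gauged viability of H929 myeloma cells after 24 h compound treatment at 37 °C. Cells plated at 4000 per well in 10% FBS RPMI 1640 supplemented with pyruvate, HEPES and glucose.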

MCL-1 = MCL-1 (Homo sapiens (Human), UniProt Q07820); assay: Cell free Mcl-1:Bim affinity assay (fluorescence polarization competition); assay type: binding; settings: 15 nM MCL-1, 5 nM FITC-Bim, 1 hour at room temperature; class symbols; read-out: BIM_Ki
In short: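 Fluorescence polarization competition: 10-point 3-fold compound dilutions displaced 5 nM FITC-Bim from 15 nM MCL-1 over 1 h at room temperature. Ki was derived from the fitted IC50 using the Nikolovska-Coleska equation, with percent inhibition normalized to DMSO and positive controls.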

Sequence of MCL-1 (Q07820 whole entry): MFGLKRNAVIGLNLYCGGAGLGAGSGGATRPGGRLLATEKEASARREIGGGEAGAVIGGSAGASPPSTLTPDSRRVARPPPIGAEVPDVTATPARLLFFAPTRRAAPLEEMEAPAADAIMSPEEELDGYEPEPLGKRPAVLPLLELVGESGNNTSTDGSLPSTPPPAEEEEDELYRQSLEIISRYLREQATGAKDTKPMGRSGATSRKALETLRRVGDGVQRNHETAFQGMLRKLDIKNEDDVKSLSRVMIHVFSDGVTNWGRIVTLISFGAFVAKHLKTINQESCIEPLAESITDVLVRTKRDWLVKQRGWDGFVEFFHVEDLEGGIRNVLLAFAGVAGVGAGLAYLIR

IC50 (H929 cells)	Ki (MCL-1)	Structure (SMILES)
< 500 nM	< 1 nM	CN(C)C(=O)CO[C@@H]1/C=C/COC2(CC2)C(=O)NS(=O)(=O)c2ccc3c(c2)N(C[C@@H]2CC[C@H]21)C[C@@]1(CCCc2cc(Cl)ccc21)CO3 [Example 143, 2-[(3R,6R,7R,8E,22S)-6′-Chloro-12,12-ethylene-13,15,15-trioxo-spiro[11,20-dioxa-15-thia-1,14-diazatetracyclo[14.7.2.03,6.019,24]pentacosa-8,16,18,24-tetraene-22,1′-tetralin]-7-yl]oxy-N,N-dimethyl-acetamide]
> 1000 nM	1 to 100 nM	C[C@@H]1C(=O)NS(=O)(=O)c2ccc3c(c2)N(C[C@@H]2CC[C@H]2[C@@H](O)/C=C/CN1C)C[C@@]1(CCCc2cc(Cl)ccc21)CO3 [Example 144, (3R,6R,7S,8E,12R,22S)-6′-Chloro-7-hydroxy-11,12-dimethyl-15,15-dioxo-spiro[20-oxa-15-thia-1,11,14-triazatetracyclo[14.7.2.03,6.019,24]pentacosa-8,16,18,24-tetraene-22,1′-tetralin]-13-one]
< 500 nM	< 1 nM	C[C@@H]1C(=O)NS(=O)(=O)c2ccc3c(c2)N(C[C@@H]2CC[C@H]2[C@@H](OC(=O)N(C)C)/C=C/CN1C)C[C@@]1(CCCc2cc(Cl)ccc21)CO3 [Example 145, [(3R,6R,7S,8E,12R,22S)-6′-Chloro-11,12-dimethyl-13,15,15-trioxo-spiro[20-oxa-15-thia-1,11,14-triazatetracyclo[14.7.2.03,6.019,24]pentacosa-8,16,18,24-tetraene-22,1′-tetralin]-7-yl] N,N-dimethylcarbamate]
< 500 nM	1 to 100 nM	C[C@H]1NC/C=C/[C@H](OC(=O)N(C)C)[C@@H]2CC[C@H]2CN2C[C@@]3(CCCc4cc(Cl)ccc43)COc3ccc(cc32)S(=O)(=O)NC1=O [Example 146, [(3R,6R,7S,8E,12R,22S)-6′-Chloro-12-methyl-13,15,15-trioxo-spiro[20-oxa-15-thia-1,11,14-triazatetracyclo[14.7.2.03,6.019,24]pentacosa-8,16,18,24-tetraene-22,1′-tetralin]-7-yl] N,N-dimethylcarbamate]
< 500 nM	< 1 nM	C[C@H]1C(=O)NS(=O)(=O)c2ccc3c(c2)N(C[C@@H]2CC[C@H]2[C@@H](OC(=O)N(C)C)/C=C/CN1C)C[C@@]1(CCCc2cc(Cl)ccc21)CO3 [Example 147, [(3R,6R,7S,8E,12S,22S)-6′-Chloro-11,12-dimethyl-13,15,15-trioxo-spiro[20-oxa-15-thia-1,11,14-triazatetracyclo[14.7.2.03,6.019,24]pentacosa-8,16,18,24-tetraene-22,1′-tetralin]-7-yl] N,N-dimethylcarbamate]
< 500 nM	< 1 nM	CC1(C)OC/C=C/[C@H](OC(=O)N2CCN(CCO)CC2)[C@@H]2CC[C@H]2CN2C[C@@]3(CCCc4cc(Cl)ccc43)COc3ccc(cc32)S(=O)(=O)NC1=O [Example 148, [(3R,6R,7S,8E,22S)-6′-Chloro-12,12-dimethyl-13,15,15-trioxo-spiro[11,20-dioxa-15-thia-1,14-diazatetracyclo[14.7.2.03,6.019,24]pentacosa-8,16,18,24-tetraene-22,1′-tetralin]-7-yl] 4-(2-hydroxyethyl)piperazine-1-carboxylate]
< 500 nM	< 1 nM	CN1CCN(CCNC(=O)O[C@H]2/C=C/COC(C)(C)C(=O)NS(=O)(=O)c3ccc4c(c3)N(C[C@@H]3CC[C@H]32)C[C@@]2(CCCc3cc(Cl)ccc32)CO4)CC1 [Example 149, [(3R,6R,7S,8E,22S)-6′-Chloro-12,12-dimethyl-13,15,15-trioxo-spiro[11,20-dioxa-15-thia-1,14-diazatetracyclo[14.7.2.03,6.019,24]pentacosa-8,16,18,24-tetraene-22,1′-tetralin]-7-yl] N-[2-(4-methylpiperazin-1-yl)ethyl]carbamate]
< 1000 nM	< 1 nM	CC1(C)OC/C=C/[C@H](OC(=O)NCCN2CCC(O)CC2)[C@@H]2CC[C@H]2CN2C[C@@]3(CCCc4cc(Cl)ccc43)COc3ccc(cc32)S(=O)(=O)NC1=O [Example 150, [(3R,6R,7S,8E,22S)-6′-Chloro-12,12-dimethyl-13,15,15-trioxo-spiro[11,20-dioxa-15-thia-1,14-diazatetracyclo[14.7.2.03,6.019,24]pentacosa-8,16,18,24-tetraene-22,1′-tetralin]-7-yl] N-[2-(4-hydroxy-1-piperidyl)ethyl]carbamate]
< 500 nM	< 1 nM	CN1CC[C@H](NC(=O)O[C@H]2/C=C/COC(C)(C)C(=O)NS(=O)(=O)c3ccc4c(c3)N(C[C@@H]3CC[C@H]32)C[C@@]2(CCCc3cc(Cl)ccc32)CO4)C1 [Example 151, [(3R,6R,7S,8E,22S)-6′-Chloro-12,12-dimethyl-13,15,15-triox-spiro[11,20-dioxa-15-thia-1,14-diazatetracyclo[14.7.2.03,6.019,24]pentacosa-8,16,18,24-tetraene-22,1′-tetralin]-7-yl] N-[(3S)-1-methylpyrrolidin-3-yl]carbamate]
< 500 nM	< 1 nM	CN1CC[C@@H](NC(=O)O[C@H]2/C=C/COC(C)(C)C(=O)NS(=O)(=O)c3ccc4c(c3)N(C[C@@H]3CC[C@H]32)C[C@@]2(CCCc3cc(Cl)ccc32)CO4)C1 [Example 152, [(3R,6R,7S,8E,22S)-6′-Chloro-12,12-dimethyl-13,15,15-trioxo-spiro[11,20-dioxa-15-thia-1,14-diazatetracyclo[14.7.2.03,6.019,24]pentacosa-8,16,18,24-tetraene-22,1′-tetralin]-7-yl] N-[(3R)-1-methylpyrrolidin-3-yl]carbamate]
< 500 nM	< 1 nM	CC1(C)OC/C=C/[C@H](OC(=O)N2CC(O)C2)[C@@H]2CC[C@H]2CN2C[C@@]3(CCCc4cc(Cl)ccc43)COc3ccc(cc32)S(=O)(=O)NC1=O [Example 153]
< 500 nM	< 1 nM	CN(C)[C@H]1CCN(C(=O)O[C@H]2/C=C/COC(C)(C)C(=O)NS(=O)(=O)c3ccc4c(c3)N(C[C@@H]3CC[C@H]32)C[C@@]2(CCCc3cc(Cl)ccc32)CO4)C1 [Example 154, [(3R,6R,7S,8E,22S)-6′-Chloro-12,12-dimethyl-13,15,15-trioxo-spiro[11,20-dioxa-15-thia-1,14-diazatetracyclo[14.7.2.03,6.019,24]pentacosa-8,16,18,24-tetraene-22,1′-tetralin]-7-yl] (3S)-3-(dimethylamino)pyrrolidine-1-carboxylate]
< 500 nM	< 1 nM	CN(C)CCNC(=O)O[C@H]1/C=C/COC(C)(C)C(=O)NS(=O)(=O)c2ccc3c(c2)N(C[C@@H]2CC[C@H]21)C[C@@]1(CCCc2cc(Cl)ccc21)CO3 [Example 155, [(3R,6R,7S,8E,22S)-6′-Chloro-12,12-dimethyl-13,15,15-trioxo-spiro[11,20-dioxa-15-thia-1,14-diazatetracyclo[14.7.2.03,6.019,24]pentacosa-8,16,18,24-tetraene-22,1′-tetralin]-7-yl] N-[2-(dimethylamino)ethyl]carbamate]
< 500 nM	< 1 nM	CNC1CN(C(=O)O[C@H]2/C=C/COC(C)(C)C(=O)NS(=O)(=O)c3ccc4c(c3)N(C[C@@H]3CC[C@H]32)C[C@@]2(CCCc3cc(Cl)ccc32)CO4)C1 [Example 156, [(3R,6R,7S,8E,22S)-6′-Chloro-12,12-dimethyl-13,15,15-trioxo-spiro[11,20-dioxa-15-thia-1,14-diazatetracyclo[14.7.2.03,6.019,24]pentacosa-8,16,18,24-tetraene-22,1′-tetralin]-7-yl] 3-(methylamino)azetidine-1-carboxylate]
< 500 nM	< 1 nM	CNCCNC(=O)O[C@H]1/C=C/COC(C)(C)C(=O)NS(=O)(=O)c2ccc3c(c2)N(C[C@@H]2CC[C@H]21)C[C@@]1(CCCc2cc(Cl)ccc21)CO3 [Example 157, [(3R,6R,7S,8E,22S)-6′-Chloro-12,12-dimethyl-13,15,15-trioxo-spiro[11,20-dioxa-15-thia-1,14-diazatetracyclo[14.7.2.03,6.019,24]pentacosa-8,16,18,24-tetraene-22,1′-tetralin]-7-yl] N-[2-(methylamino)ethyl]carbamate]
< 500 nM	< 1 nM	CC1(C)CN(C(=O)O[C@H]2/C=C/COC(C)(C)C(=O)NS(=O)(=O)c3ccc4c(c3)N(C[C@@H]3CC[C@H]32)C[C@@]2(CCCc3cc(Cl)ccc32)CO4)CCO1 [Example 158, [(3R,6R,7S,8E,22S)-6′-Chloro-12,12-dimethyl-13,15,15-trioxo-spiro[11,20-dioxa-15-thia-1,14-diazatetracyclo[14.7.2.03,6.019,24]pentacosa-8,16,18,24-tetraene-22,1′-tetralin]-7-yl] 2,2-dimethylmorpholine-4-carboxylate]
< 500 nM	< 1 nM	COCCN(C)C(=O)O[C@H]1/C=C/COC(C)(C)C(=O)NS(=O)(=O)c2ccc3c(c2)N(C[C@@H]2CC[C@H]21)C[C@@]1(CCCc2cc(Cl)ccc21)CO3 [Example 159, [(3R,6R,7S,8E,22S)-6′-Chloro-12,12-dimethyl-13,15,15-trioxo-spiro[11,20-dioxa-15-thia-1,14-diazatetracyclo[14.7.2.03,6.019,24]pentacosa-8,16,18,24-tetraene-22,1′-tetralin]-7-yl] N-(2-methoxyethyl)-N-methyl-carbamate]
